Measurements taken from patent publication US20210106582A1, “COMPOUNDS AND PHARMACEUTICAL COMPOSITIONS THEREOF FOR USE IN THE TREATMENT OF FIBROTIC DISEASES” (Galapagos NV, priority 2017, published 2021).
Where “and” joins values, the source holds several entries; their conditions need not be identical. Equal entries are not always repeated.

Columns and labels:
Assay type in all cases: in vivo
[1] = test system: male C57BL/6 mice fed CDAHF diet; experiment: CDAHFD model (choline-deficient, L-amino acid-defined, high-fat diet); settings: individual animals, CDAHFD 10W, 30 mg/kg q.d. p.o.
[2] = test system: female C57BL/6J mice, lung fibrosis induced by radiation; experiment: Radiation induced fibrosis mice model; settings: individual animals, irradiated lung, nintedanib 60 mg/kg QD PO D1-D14
Method: Pneumonitis and lung fibrosis are the major radiation-induced complications following thoracic radiotherapy, which is one of the major treatment of lung and breast cancers, lymphomas and hematopoietic transplant conditioning.
The objective of this model is to evaluate the effect of a compound of the invention in lung fibrosis induced by radiation in mice. (Bickelhaupt et al., 2017)
7 weeks old (18/22 gr) female C57BL/6J mice from Charles River (France) are maintained on 12 h light/dark cycle at 22° C. with ad libidum access to tap water and food.
The test compounds are dissolved/suspended in appropriate vehicle prior to using and then kept light-free, under agitation at room temperature.
The dose volume administered is 10 mL/kg and the volume is adapted following mean body weight (BW) of the group as follows: 200 μL if mean BW<22.5 g, 250 μL if mean BW≥22.5 g; 300 μL if mean BW>27.5 g.
On day 1 of week 1, the animals are exposed at the thorax to a 17 Gray irradiation dose, under isoflurane anesthesia. […]
Body weight are recorded once a week, and on Day 14, lung function measurement under anesthesia is realized by Flexivent (Devos et al., 2017) for all groups before sacrifice.
At sacrifice on Day 14, the lungs are collected and fixed in 4% formaldehyde for 24 h before embedding in paraffin. […] The anti-collagen I antibody is detected and amplified by ImmPress kit (Vector Laboratories, Cat. No: MP-7401). The immunostained sections are then scanned (Nanozoomer 2.0HT, Hamamatsu) before quantification by image analysis (CaloPix software, TRIBVN Healthcare). Data are expressed as percentage collagen I area per area of lung tissue.
Values for all mice from the same group are averaged. Data are expressed as mean±sem and are compared with a one-way ANOVA followed by Dunnett multiple comparison post hoc test. […]
Manganese superoxide dismutase (MnSOD), located in mitochondria, catalyzes the conversion of superoxide into H2O2, and is a marker of antioxidant response induced by oxidative stress. MnSOD expression is measured immunohistochemically following a protocol adapted from Inghilleri et al. (Inghilleri et al., 2006).
At sacrifice on Day 14, the lungs are collected and fixed in 4% formaldehyde for 24 h before embedding in paraffin. […] The anti-MnSOD antibody is detected by an anti-rabbit biotinylated antibody (Vector Laboratories, Cat. No: BA-1100) amplified by avidin-biotin peroxidase (Vector Laboratories, Cat. No: PK-6100). […] The immunostained sections counterstained with Gill's hematoxylin are then scanned (Nanozoomer 2.0HT, Hamamatsu) before quantification by image analysis (CaloPix software, TRIBVN Healthcare). Data are expressed as percentage MnSOD stained area per area of lung tissue.

[3] = test system: C57BL/6N male mice, bleomycin induced pulmonary fibrosis; experiment: Therapeutic bleomycin induced pulmonary fibrosis 21-day mice model; settings: individual animals, BLM, nintedanib 60 mg/kg QD PO D7-D21
Method: The aim of the study is to test the efficacy of a test compound at three different doses in a 21-day model of bleomycin induced pulmonary fibrosis in mice.
11 week-old C57BL/6N male mice from Charles River (Italy) are maintained on 12 h light/dark cycle at 22° C. with ad libidum access to tap water and food.
On day 0, all mice in groups 2-4 receive a 1.5 U/kg oropharyngeal administration of bleomycin (BLM) to induce pulmonary fibrosis Animals in group 1 are not administered bleomycin, but instead receive a single dose of saline via the oropharyngeal route, and are considered sham control mice.
Animals are examined clinically twice daily. List of clinical signs and parameters are indicated in humane endpoints table. Animals are weighed daily starting from DO.
On day 21, lung functionality is determined. After deep anesthesia induced by an intraperitoneal injection (10 mL/kg) of a solution of xylazine (5 mg/kg) and ketamine (75 mg/kg), the trachea is exposed through midline incision and a cannula is inserted. Mice are ventilated with a tidal volume of 10 mL/kg at a frequency of 150 breaths/minute. FlexiVent (SCIREQ®) perturbations are performed three times. Deep Inflation and Pressure-Volume loops (PV loops) with stepwise increasing pressure are performed to measure the Inspiratory Capacity and stepwise pressure-driven perturbation (PVs-P). PV loops between 0 and 30 cm H2O are generated to obtain Total Lung Capacity (A). A snapshot perturbation maneuver is imposed, which is a threefold sinusoidal wave of in- and expiration controlled by the ventilator, resulting in resistance (Rrs), compliance (Crs), and elastance (Ers) of the whole respiratory system (airways, lung and chest wall). A value for each group is calculated with average FlexiVent-validated measurements recorded in each individual subject.
Then, two hours after the last dose of test substance and nintedanib, mice are sacrificed by anesthetic overdose. The lungs are excised and weighed individually. The lungs are then placed into marked bottles containing 10% buffered formalin for further histopathological evaluation.
Body weight data and lung weight data are processed using MS Excel. Statistical analysis and graphical presentation are performed using GraphPad Prism software (version 5.04).
For histopathological evaluation, whole lungs are embedded in paraffin and stained with Mallory's trichrome.
Pulmonary histological changes are assessed using Matsuse's modification of Ashcroft score (Ashcroft et al., 1988; Matsuse et al., 1999). Statistical analysis and graphical presentation is performed using GraphPad Prism software (version 5.04). Mann-Whitney test is employed.
Differences between groups are considered statistically significant when p<0.05.

[4] = test system: male C57BL/6 mice fed a Methionine and Choline-deficient (MCD) diet; experiment: MCD model (methionine and choline deficient diet, NASH); settings: individual animals, 30 mg/kg q.d. p.o., MCD diet 8 wk
Method: The methionine and choline deficient (MCD) diet model is used to produce a severe phenotype of NASH in […] (Santhekadur et al., 2017), and is used to evaluate the compounds of the invention.
At induction, 8 weeks-old male C57BL/6 mice (Janvier Labs, France) maintained at 22° C.±2° C. and humidity at 55%±10%, with a 12-hrs dark/light cycle are fed a standard diet (chow (A04C-10, Safe, France) or a Methionine and Choline-deficient (MCD) diet (EFTD.90262, Ssniff, Soest, Germany) for 8 weeks. All animals have access to filtered tap drinking water.
Four weeks after the induction, the animals are either assigned to a control-group or a test-group.
Test group animals are dosed with the a test compound, i.e. Compound A (CpdA) or Compound B (CpdB), at 30 mg/kg, q.d., p.o. formulated in methylcellulose 0.5%, 1 equivalent HCl. The control groups receives a similar volume of vehicle (10 mL/kg), i.e. the standard diet for control group 1 (C1) and the MCD diet for control group 2 (C2). Mice are randomly assigned to a treatment group according to their body weight in order to ensure a homogenous reparation.
After sacrifice (week 8), the activity of the test compound on the development of NASH is assessed by plasma ALT and AST levels and in liver by histopathological examination of fibrosis and steatosis (Sirius red, Oil Red O), collagen (OH-Pro) and triglycerides content and expression of fibrotic and inflammatory genes.
In addition, the NAS score is determined to further evaluate the compounds with respect to their effect on diet induced NASH. The nonalcoholic fatty liver disease activity scoring (NAS) has been proposed and accepted as a tool to measure changes in NAFLD during therapeutic trials (Brunt et al., 2011; Kleiner et al., 2005).
The NAS score (0-8) is defined as the sum of the steatosis score (0-3), lobular inflammation score (0-3), ballooning score (0-2). A NAS score of ≥5 is indicative of a NASH diagnostic.

## CSc1ccc(C(=O)/C=C/c2cc(C)c(OC(C)(C)C(=O)O)c(C)c2)cc1 [CpdC, elafibranor, reference compound]
[1]; Fig 12 panel A
  Col1a1 expression profiles (NRQ-scaled versus Disease-Vehicle): 0.07 and 0.06 and 0.48 and 0.15 and 0.09 and 0.43 and 0.61 and 0.17
[1]; Figure 12 panel B
  TNFα expression profiles (NRQ-scaled versus Disease-Vehicle): 0.45 and 0.19 and 0.41 and 0.75 and 0.55 and 0.32 (2×) and 0.26 and 0.52
[1]; liver, Figure 11
  Fibrosis (Sirius red area %): 0.45% and 0.19% and 0.41% and 0.75% and 0.55% and 0.32% (2×) and 0.26% and 0.52%

## COC(=O)c1ccc2c(c1)NC(=O)/C2=C(\Nc1ccc(N(C)C(=O)CN2CCN(C)CC2)cc1)c1ccccc1 [nintedanib]
[2]; Figure 15
  Type I collagen stained area fraction: 10.5% (2×) and 7.6% and 7.1% and 6.5% and 11.0% and 8.2% and 9.3% and 8.9% and 13.7%
[2]; Figure 16
  MnSOD stained area fraction: 1.19% and 0.75% and 0.25% and 0.50% and 0.79% and 0.62% and 0.69% and 0.92% and 0.53% and 1.11%
[3]; Figure 14 panel B
  Compliance of the Respiratory System: 0.039 mL/cmH2O (2×) and 0.031 mL/cmH2O and 0.032 mL/cmH2O (2×) and 0.040 mL/cmH2O and 0.027 mL/cmH2O (3×) and 0.034 mL/cmH2O and 0.035 mL/cmH2O and 0.045 mL/cmH2O and 0.015 mL/cmH2O
[3]; Figure 14 panel C
  Elastance of the Respiratory System: 25.83 cmH2O/mL and 32.61 cmH2O/mL and 31.04 cmH2O/mL and 25.16 cmH2O/mL and 37.06 cmH2O/mL and 36.60 cmH2O/mL and 31.06 cmH2O/mL and 29.07 cmH2O/mL and 37.31 cmH2O/mL and 28.26 cmH2O/mL and 25.68 cmH2O/mL and 22.39 cmH2O/mL and 68.28 cmH2O/mL
[3]; Matsuse's modification, Figure 13
  Ashcroft Score: 2.0 and 2.3 and 2.8 and 3.2 and 3.7 (2×) and 3.5 (4×) and 3.0 (2×) and 3.4 and 2.5 and 2.4
[3]; day 21 FlexiVent, Figure 14 panel A
  Inspiratory Capacity: 0.69 mL and 0.57 mL and 0.62 mL and 0.71 mL and 0.48 mL and 0.58 mL and 0.68 mL and 0.53 mL and 0.56 mL and 0.76 mL and 0.78 mL and 0.33 mL

## Cc1c2n(c(OC[C@@H]3COCCO3)cc1=O)CCc1cc(OCC(F)(F)F)ccc1-2 [Compound B, 4-[[(2S)-1,4-dioxan-2-yl]methoxy]-1-methyl-9-(2,2,2-trifluoroethoxy)-6,7-dihydrobenzo[a]quinolizin-2-one]
[4]; NRQ scaled versus disease, Fig 8 Panel B
  TIMP1 NRQ gene expression: 0.3 (3×) and 0.4 (2×) and 0.5 and 1.7 (2×) and 1.2 and 1.4
[4]; dosing from week 4, Normalised Relative Quantity scaled versus disease, FIG. 8 Panel A
  Col1a NRQ gene expression: 0.5 and 2.0 and 1.3 and 1.5 (2×) and 0.4 and 0.3 (2×) and 0.2 (2×)
[4]; liver, NRQ scaled versus disease, Fig 9 Panel A
  TNfα NRQ gene expression: 0.4 (2×) and 0.7 and 1.1 (2×) and 0.8 and 0.9 and 0.6 and 0.3 (2×)
[4]; liver, NRQ scaled versus disease, Fig 9 Panel B
  CC12 NRQ gene expression: 0.8 and 0.3 and 0.7 (2×) and 1.2 (2×) and 0.9 (2×) and 1.5 and 0.5
[4]; total NAS score (0-8), Fig 10
  NAS scoring data: 5.0 and 7.0 (2×) and 6.0 (7×)
